# Tested on: HCV 1b genotype
# Assay: HCV replicon assay, 1b genotype
# Assay type: cell-based
# Conditions: Hepatitis C virus; HCV 1b genotype replicon; EC50 = effective 50% inhibitory concentration
# Description: An HCV Replion assay was utilized in the present disclosure, and was prepared, conducted and validated as described in commonly owned PCT/US2006/022197 and in O'Boyle et. al. Antimicrob Agents Chemother. 2005 April; 49(4):1346-53. Assay methods incorporating luciferase reporters have also been used as described (Apath.com).
# HCV-neo replicon cells and replicon cells containing mutations in the NS5A region were used to test the currently described family of compounds. The compounds were determined to have more than 10-fold less inhibitory activity on cells containing mutations than wild-type cells. Thus, the compounds of the present disclosure can be effective in inhibiting the function of the HCV NS5A protein and are understood to be as effective in combinations as previously described in application PCT/US2006/022197 and commonly owned WO/04014852. Further, the compounds of the present disclosure can be effective against the HCV 1b genotype. It should also be understood that the compounds of the present disclosure can inhibit multiple genotypes of HCV. […] In one embodiment, compounds of the present disclosure are inhibitory versus 1a, 1b, 2a, 2b, 3a, 4a, and 5a genotypes.
row,Structure (SMILES),EC50
1,"COC(=O)N[C@H](C(=O)N1CCC[C@H]1c1ncc(-c2nc3cc4sc(-c5cnc([C@@H]6CCCN6C(=O)[C@@H](NC(=O)OC)C(C)C)[nH]5)nc4cc3s2)[nH]1)C(C)C [Example 1, Methyl ((1S)-1-(((2S)-2-(4-(6-(2-((28)-1-((2S)-2-((methoxycarbonyl)amino)-3-methylbutanoyl)-2-pyrrolidinyl)-1H-imidazol-4-yl)[1,3]thiazolo[5,4-f][1,3]benzothiazol-2-yl)-1H-imidazol-2-yl)-1-pyrrolidinyl)carbonyl)-2-methylpropyl)carbamate, bistrifluoracetate]",0.034 nM
2,"COC(=O)N[C@@H](C(=O)N1CCC[C@H]1c1ncc(-c2nc3cc4sc(-c5cnc([C@@H]6CCCN6C(=O)[C@H](NC(=O)OC)c6ccccc6)[nH]5)nc4cc3s2)[nH]1)c1ccccc1 [Example 2, Dimethyl ([1,3]thiazolo[5,4-f][1,3]benzothiazole-2,6-diylbis(1H-imidazole-4,2-diyl(2S)-2,1-pyrrolidinediyl((1R)-2-oxo-1-phenyl-2,1-ethanediyl)))biscarbamate, bistrifluoracetate]",0.025 nM
3,"COC(=O)N[C@@H](C(=O)N1CCC[C@H]1c1ncc(-c2nc3cc4sc(-c5cnc([C@@H]6CCCN6C(=O)[C@H](NC(=O)OC)C(C)C)[nH]5)nc4cc3s2)[nH]1)C(C)C [Example 3, Methyl ((1R)-1-(((2S)-2-(4-(6-(2-((2S)-1-((2R)-2-((methoxycarbonyl)amino)-3-methylbutanoyl)-2-pyrrolidinyl)-1H-imidazol-4-yl)[1,3]thiazolo[5,4-f][1,3]benzothiazol-2-yl)-1H-imidazol-2-yl)-1-pyrrolidinyl)carbonyl)-2-methylpropyl)carbamate, bistrifluoracetate]",350 nM

# — US8143414B2, “Hepatitis C virus inhibitors” (Bristol-Myers Squibb Company, priority 2009, dated 2012)
